ChEMBL document CHEMBL3045943, “Novel N-aryl(alkaryl)-2-[(3-R-2-oxo-2H-[1,2,4]triazino[2,3-c]quinazoline-6-yl)thio]acetamides: synthesis, cytotoxicity, anticancer activity, COMPARE analysis and docking” (2013)

Experiments:
Format in all cases: functional
[1] = test system: UO-31; assay: Cytotoxicity against Homo sapiens (human) UO31 cells after 48 hr by SRB assay; conditions: UO-31, 48 h
[2] = test system: HCT-116; assay: Cytotoxicity against Homo sapiens (human) HCT116 cells after 48 hr by SRB assay; conditions: HCT-116, 48 h
[3] = test system: SF-295; assay: Cytotoxicity against Homo sapiens (human) SF295 cells after 48 hr by SRB assay; conditions: SF-295, 48 h
[4] = test system: MDA-MB-468; assay: Cytotoxicity against Homo sapiens (human) MDA-MB-468 cells assessed as cell growth at 10 uM after 48 hr by SRB assay relative to control; conditions: MDA-MB-468, 48 h, read-out: Activity
[5] = test system: HOP-62; assay: Cytotoxicity against Homo sapiens (human) HOP62 cells assessed as cell growth at 10 uM after 48 hr by SRB assay relative to control; conditions: HOP-62, 48 h, read-out: Activity
[6] = test system: NCI-H522; assay: Cytotoxicity against Homo sapiens (human) NCI-H522 cells assessed as cell growth at 10 uM after 48 hr by SRB assay relative to control; conditions: NCI-H522, 48 h, read-out: Activity
[7] = test system: M14; assay: Cytotoxicity against Homo sapiens (human) M14 cells after 48 hr by SRB assay; conditions: M14, 48 h
[8] = read-out: pLC50 (the source's name) (converted)

`COc1ccccc1CNC(=O)CSc1nc2ccccc2c2nc(=O)c(-c3ccccc3)nn12` was tested, and the GI50 [1] was 1.86 µM, the LC50 [1] was > 100 µM and the TGI ([1]; read-out: pTGI) was > 100 µM. For the same compound, the GI50 [2] was 2.69 µM, the CC50 [2, 8] was > 100 µM and the TGI ([2]; read-out: pTGI) was > 100 µM. The GI50 [3] was 2.45 µM, the CC50 [3, 8] was > 100 µM and the TGI ([3]; read-out: pTGI (converted)) was 8.51 µM.

With `COc1ccc(-c2nn3c(SCC(=O)Nc4ccccc4Cl)nc4ccccc4c3nc2=O)cc1` the growth at 10 µM [4] was 44.3%, the growth at 10 µM [5] was 30.3% and the growth at 10 µM [6] was 36.5%. For the same compound, the GI50 [7] was 2.63 µM, the CC50 [7, 8] was > 100 µM and the TGI ([7]; read-out: pTGI (converted)) was 100 µM.
